Measurements as given in patent US20210255193A1, “LYSINE REACTIVE PROBES AND USES THEREOF” (The Scripps Research Institute, priority 2017, published 2021).

Tests used:
[1] = biological target: T1, SIN3A Paired amphipathic helix protein Sin3a (Homo sapiens, UniProt Q96ST3); test: competitive isoTOP-ABPP; format: binding; details: for isoTOP-ABPP reactivity ratio at lysine Q96ST3_K155 / isoTOP-ABPP ratio (R) at liganded lysine Q96ST3_K155: 50 uM, in vitro; for isoTOP-ABPP reactivity ratio at lysine Q96ST3_K155: 231 sol; for isoTOP-ABPP ratio (R) at liganded lysine Q96ST3_K155: sol, 231; for isoTOP-ABPP ratio, lysine Q96ST3_K155: possible other lysine Q96ST3_K152
T1 construct: isoTOP-ABPP experiments performed in cell lysates (in vitro); endogenous in cells; host or cells: soluble proteome of human cancer cell lines (MDA-MB-231; Ramos and Jurkat also prepared)
T1 sequence (Q96ST3 1-1273): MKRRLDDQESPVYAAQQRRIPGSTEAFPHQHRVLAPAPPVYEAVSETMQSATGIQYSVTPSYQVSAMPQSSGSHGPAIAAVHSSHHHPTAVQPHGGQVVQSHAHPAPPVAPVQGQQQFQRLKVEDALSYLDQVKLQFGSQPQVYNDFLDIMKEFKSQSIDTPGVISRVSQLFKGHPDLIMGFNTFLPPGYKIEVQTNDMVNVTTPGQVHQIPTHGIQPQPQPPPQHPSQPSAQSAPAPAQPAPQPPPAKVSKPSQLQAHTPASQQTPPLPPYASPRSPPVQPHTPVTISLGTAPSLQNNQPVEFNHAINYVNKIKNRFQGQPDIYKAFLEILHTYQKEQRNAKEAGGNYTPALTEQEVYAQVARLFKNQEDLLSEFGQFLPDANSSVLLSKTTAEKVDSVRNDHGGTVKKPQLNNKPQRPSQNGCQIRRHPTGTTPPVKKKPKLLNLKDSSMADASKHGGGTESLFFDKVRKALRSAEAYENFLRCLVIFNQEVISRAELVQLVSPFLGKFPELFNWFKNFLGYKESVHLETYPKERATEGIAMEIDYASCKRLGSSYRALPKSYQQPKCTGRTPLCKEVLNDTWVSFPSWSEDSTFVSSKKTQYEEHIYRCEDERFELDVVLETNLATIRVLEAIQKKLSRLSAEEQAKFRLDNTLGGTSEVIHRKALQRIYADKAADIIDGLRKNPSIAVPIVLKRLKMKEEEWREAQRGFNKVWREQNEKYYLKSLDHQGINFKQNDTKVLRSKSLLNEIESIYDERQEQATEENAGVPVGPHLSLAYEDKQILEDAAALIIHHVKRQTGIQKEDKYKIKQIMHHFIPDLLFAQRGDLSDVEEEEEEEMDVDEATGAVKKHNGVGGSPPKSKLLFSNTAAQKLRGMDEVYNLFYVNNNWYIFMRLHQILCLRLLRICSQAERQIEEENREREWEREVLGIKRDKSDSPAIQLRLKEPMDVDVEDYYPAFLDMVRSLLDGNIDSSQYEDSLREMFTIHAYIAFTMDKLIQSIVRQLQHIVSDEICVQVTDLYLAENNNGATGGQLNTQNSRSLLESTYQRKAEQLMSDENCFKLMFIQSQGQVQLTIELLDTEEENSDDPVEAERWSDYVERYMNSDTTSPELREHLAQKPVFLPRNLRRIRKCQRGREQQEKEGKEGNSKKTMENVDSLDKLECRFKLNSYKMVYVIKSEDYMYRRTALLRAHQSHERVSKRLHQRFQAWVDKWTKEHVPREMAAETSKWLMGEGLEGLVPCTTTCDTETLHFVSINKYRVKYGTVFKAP
Summary of the method: (§1)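 Here, isoTOP-ABPP measures loss of STP-alkyne labeling at individual lysines after fragment exposure in lysate. Activated esters are dosed at 50 μM, guanidinylating agents at 100 μM; the probe follows at 0.1 mM for 1 h. R ≥4 marks a liganded lysine.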

OLA1 Obg-like ATPase 1 = biological target: T2, OLA1 Obg-like ATPase 1 (Homo sapiens, UniProt Q9NTK5); test: competitive isoTOP-ABPP; format: binding; details: for isoTOP-ABPP reactivity ratio at lysine Q9NTK5_K248 / isoTOP-ABPP ratio (R) at liganded lysine Q9NTK5_K248: 50 uM, in vitro; for isoTOP-ABPP reactivity ratio at lysine Q9NTK5_K248: 231 sol; for isoTOP-ABPP ratio (R) at liganded lysine Q9NTK5_K248: sol, 231
T2 construct: endogenous in cells; host or cells: MDA-MB-231 (soluble fraction of lysate)
Summary of the method: as §1

| Structure (SMILES) | isoTOP-ABPP ratio (R) at liganded lysine Q96ST3_K155 [1] | isoTOP-ABPP ratio (R) at liganded lysine Q9NTK5_K248 (OLA1 Obg-like ATPase 1) | isoTOP-ABPP ratio, lysine Q96ST3_K155 ([1]; 50 uM_231_sol_in vitro) | isoTOP-ABPP ratio, lysine Q9NTK5_K248 (OLA1 Obg-like ATPase 1; 50 uM_231_sol_in vitro) | also measured |
| --- | --- | --- | --- | --- | --- |
| Cn1cc(CC(=O)Oc2ccc([N+](=O)[O-])cc2[N+](=O)[O-])c2ccccc21 [fragment 32, 2,4-Dinitrophenyl 2-(1-methyl-1H-indol-3-yl)acetate] | – | – | – | – | isoTOP-ABPP reactivity ratio at lysine Q96ST3_K155 [1]: 17.5; isoTOP-ABPP reactivity ratio at lysine Q9NTK5_K248 (OLA1 Obg-like ATPase 1): 1.0 |
| COc1cc(CCC(=O)Oc2ccc([N+](=O)[O-])cc2[N+](=O)[O-])cc(OC)c1OC [fragment 33, 2,4-Dinitrophenyl 3-(3,4,5-trimethoxyphenyl)propanoate] | – | – | – | – | isoTOP-ABPP reactivity ratio at lysine Q96ST3_K155 [1]: 2.0; isoTOP-ABPP reactivity ratio at lysine Q9NTK5_K248 (OLA1 Obg-like ATPase 1): 1.0 |
| O=C(Oc1ccc([N+](=O)[O-])cc1[N+](=O)[O-])C1CCN(C(=O)OCc2ccccc2)CC1 [fragment 34, 1-Benzyl 4-(2,4-dinitrophenyl) piperidine-1,4-dicarboxylate] | 0.8 | 0.9 | – | – | – |
| O=C(Oc1ccc([N+](=O)[O-])cc1[N+](=O)[O-])c1ccc2ccccc2n1 [fragment 35, 2,4-Dinitrophenyl quinoline-2-carboxylate] | 1.6 | 1.0 | – | – | – |
| O=C(CCc1coc2cc(F)ccc2c1=O)Oc1ccc([N+](=O)[O-])cc1[N+](=O)[O-] [fragment 36, 2,4-Dinitrophenyl 3-(7-fluoro-4-oxo-4H-chromen-3-yl)propanoate] | 1.4 | 0.8 | – | – | – |
| O=C(Oc1ccc([N+](=O)[O-])cc1[N+](=O)[O-])c1ccc(-c2ccccc2)cc1 [fragment 37, 2,4-Dinitrophenyl [1,1′-biphenyl]-4-carboxylate] | 1.1 | 0.9 | – | – | – |
| O=C(CC12CC3CC(CC(C3)C1)C2)Oc1ccc([N+](=O)[O-])cc1[N+](=O)[O-] [fragment 38, 2,4-Dinitrophenyl 2-(adamantan-1-yl)acetate] | 1.2 | 0.9 | – | – | – |
| O=C(Oc1ccc([N+](=O)[O-])cc1[N+](=O)[O-])c1ccc(Oc2ccccc2)cc1 [fragment 39, 2,4-Dinitrophenyl 4-phenoxybenzoate] | 1.0 | 0.9 | – | – | – |
| O=C(Oc1ccc([N+](=O)[O-])cc1[N+](=O)[O-])c1ccccc1Nc1cccc(C(F)(F)F)c1 [fragment 40, 2,4-Dinitrophenyl 2-((3-(trifluoromethyl)phenyl)amino)benzoate] | 1.1 | 0.9 | – | – | – |
| CC(C)(C)OC(=O)NCCCC(=O)Oc1ccc([N+](=O)[O-])cc1[N+](=O)[O-] [fragment 41, 2,4-Dinitrophenyl 4-((tert-butoxycarbonyl)amino)butanoate] | 1.3 | 1.0 | – | – | – |
| O=C(Oc1ccc([N+](=O)[O-])cc1[N+](=O)[O-])C(c1ccccc1)(c1ccccc1)c1ccccc1 [fragment 42, 2,4-Dinitrophenyl 2,2,2-triphenylacetate] | 0.9 | 1.0 | – | – | – |
| CC(=O)Oc1ccc([N+](=O)[O-])cc1[N+](=O)[O-] [fragment 43, 2,4-Dinitrophenyl acetate] | 1.2 | 1.0 | – | – | – |
| N#Cc1ccc(C(=O)Oc2ccc([N+](=O)[O-])cc2[N+](=O)[O-])cc1 [fragment 44, 2,4-Dinitrophenyl 4-cyanobenzoate] | – | – | 1.5 | 1.1 | – |
| O=C(CCc1ccc2c(c1)OCO2)Oc1ccc([N+](=O)[O-])cc1[N+](=O)[O-] [fragment 45, 2,4-Dinitrophenyl 3-(benzo[d][1,3]dioxol-5-yl)propanoate] | – | – | 1.5 | 1.0 | – |
| O=C(ON1C(=O)CCC1=O)c1cc(C(F)(F)F)cc(C(F)(F)F)c1 [fragment 46, 3,5-Bis(trifluoromethyl)benzoic acid NHS ester] | – | – | 4.4 | 1.2 | – |
| O=C(Oc1c(F)c(F)c(C(F)(F)F)c(F)c1F)c1cc(C(F)(F)F)cc(C(F)(F)F)c1 [fragment 47, 2,3,5,6-Tetrafluoro-4-(trifluoromethyl)phenyl 3,5-bis(trifluoromethyl)benzoate] | – | – | 1.8 | 1.2 | – |
| O=C(Oc1c(F)c(F)cc(F)c1F)c1cc(C(F)(F)F)cc(C(F)(F)F)c1 [fragment 48, 2,3,5,6-Tetrafluorophenyl 3,5-bis(trifluoromethyl)benzoate] | – | – | 20.0 | 1.0 | – |
| CC(C)(C)OC(=O)N=C(NC(=O)OC(C)(C)C)n1cccn1 [fragment 50, reference compound] | – | – | – | – | isoTOP-ABPP ratio, lysine Q96ST3_K155 ([1]; 100 uM_231_sol_in vitro): 3.5; isoTOP-ABPP ratio, lysine Q9NTK5_K248 (OLA1 Obg-like ATPase 1; 100 uM_231_sol_in vitro): 2.1 |
| NC(=O)c1cc(C(F)(F)F)cc(C(F)(F)F)c1 [fragment 51, reference compound] | – | – | 1.1 | 0.9 | – |
